According to patent publication US9950048B2, “Immunogenic epitopes for immunotherapy” (immatics biotechnologies GmbH, priority 2007, dated 2018):
Ends that are not written are not given here.

Tested on: sorted CD8+ NOX-001 tetramer+ T-cell line
Test: IFNγ ELISPOT functionality test of sorted specific CD8+ T-cell line
Assay type: cell-based, human
Details: FIG. 8
Experimental: FIGS. 8A and 8B depict the ELISPOT analysis of IFNγ production by T-cell lines upon in vitro restimulation with the NOX-001 peptide. FIG. 8A is T-cell line 7+ from donor HBC-154 (sorted CD8+ NOX-001 tetramer+). FIG. 8B is T-cell line 7—from donor HBC-154 (sorted CD8+ NOX-001 tetramer+).
Sorted CD8+ NOX-001 tetramer+(A.) and CD8+ NOX-001 tetramer-(B.) cells were analysed by IFNγ ELISPOT after restimulation with irrelevant (MLA-001) (upper wells) and relevant (NOX-001) (lower wells) peptide (10 μg/ml). Numbers indicate the count of positive spots.
To determine their functionality, IFNγ production was assessed by ELISPOT (IFNγ ELISPOT Set, BD, Germany) after restimulation of the cells with the corresponding peptide. Additionally, cell-mediated cytotoxicity of specific CTLs was investigated by killing of tumor cell lines using the LIVE/DEAD cell-mediated cytotoxicity Kit (L7010, Invitrogen, Germany). Both assays were performed according to manufacturer's instructions, except noted otherwise.

In the case of ILAPVILYI [NOX-001], the “IFNγ production of T-cell line after restimulation with peptide” value was “specifically expressing IFNγ after restimulation with this peptide”.
